Experimental data taken from patent publication US11420962B2, “Indene derivatives useful in treating pain and inflammation” (TARO PHARMACEUTICALS INC., priority 2018, dated 2022).

Experiments:
Type in all cases: in vivo
[1] = system: Rats (male, Sprague-Dawley); assay: Rat carrageenan-induced hyperalgesia and paw edema; conditions: 10 mg/kg, given 1 h prior to carrageenan challenge
Experimental: Representative compounds of the invention (i.e., test compounds) were administered PO, QD for 3 days prior to carrageenan injection, once at 1 h prior to carrageen, or at 5 min or 1 h post-challenge to rats (male, Sprague-Dawley). Rats received either an intraplantar injection of saline (sham) or carrageen (0.1 mL of a 2% solution [w/v]) in the right hind paw. Mechanical hyperalgesia (using an analgesymeter) and paw volume (using a digital plethysmometer) were measured at baseline (0 hr), 2, 4 and 6 h post carrageenan injection for all the animals. Celecoxib, given 1 h prior to carrageen challenge, was used as a reference standard.

rats (male, Wistar) [2] = assay: Complete Freund's Adjuvant (CFA) model of inflammatory pain in rats; conditions: 30 mg/kg dose
Experimental: Representative compounds of the invention (i.e., test compounds) were tested in this model of inflammatory pain. The rats (male, Wistar) were acclimatized to the instruments (plantar test surface and dynamic plantar aesthesiometer) on two consecutive days prior to the initiation of the study. On Day 0, basal paw withdrawal latency and paw withdrawal threshold were taken and animals were randomized to different groups. Complete Freund's Adjuvant (CFA) at 1 mg/mL (0.1 mL) was injected into the plantar surface of right hind paw. Test compounds (3 or 30 mg/kg) were administered PO, twice (Day 0 and Day 1) or once, on Day 1 (24 h after CFA). Thermal hyperalgesia and mechanical allodynia were assessed at 0 (baseline), 1, 3 and 6 h after administration of the test compound on Day 1. Diclofenac was used as a reference compound, given once on Day 1.

male Sprague-Dawley rats = assay: Rat chronic prostatitis/chronic pelvic pain (carrageenan); conditions: 300 mg/kg
Experimental: Representative compounds of the invention (i.e., test compounds) were administered for 11 days by oral gavage in 0.9% saline (3, 10 or 30 mg/kg QD; 5 mL/kg dose volume) to male Sprague-Dawley rats. Carrageenan-mediated chronic prostatitis/chronic pelvic pain (CP/CPPS) established in rats (10 per group) by administration of an intraprostatic injection of carrageenan (˜12.5 μL/lobe of a 30 mg/mL solution) into both ventral prostate lobes, on Day 0. Referred mechanical sensitivity was measured on Days 0, 1, 3 and 7, 2 hours after test compound, or vehicle (saline) administration, by applying 6 von Frey filaments with increasing forces of 0.16-2 g to the scrotal skin area, 3 times each for 1-2 seconds, with a 5-second interval between applications. Responses were scored (zero-no response; one-reaction of the animal, two-jump, and three-licking the site) and expressed as the nociceptive threshold for each day of assessment. Ibuprofen was used as a reference standard.
According to the above assay, Compound Ia-1 restored nociceptive threshold to 65% of baseline on Day 3 at the 30 mg/kg dose as compared to the reference standard, ibuprofen (300 mg/kg), which restored the threshold to 120% of the baseline.

[3] = system: female Sprague-Dawley rats; assay: Cyclophosphamide-induced cystitis in rats (visceral pain); conditions: 300 mg/kg dose
Experimental: Representative compounds of the invention (i.e., test compounds) were administered to female Sprague-Dawley rats, for four days by oral gavage in 0.9% saline. Two hours after the fourth dose, the rats were challenged by intraperitoneal administration of cyclophosphamide (150 mg/kg). Referred mechanical sensitivity was measured four hours later by applying a series of eight von Frey filaments to the lower abdomen, three times each for 1-2 seconds with a 5 second interval between applications. Responses were scored (zero-no response; one-response, two-response and change of position, and three-response, change of position and licking the site or vocalization), totaled and the percent of maximal possible nociceptive score calculated. Ibuprofen was used as a reference standard.

[4] = system: Rats (male, Sprague-Dawley); assay: TNBS colitis assay in rats; conditions: 10 mg/kg dose
Experimental: TNBS Colitis Assay of Representative Compounds in Rats Rats (male, Sprague-Dawley) were anaesthetized and a solution of TNBS (48 mg/kg) in ethanol, was instilled intra-rectally to induce colitis, 1 h after oral dosing of representative compounds of the invention (i.e., test compounds). Test compounds were dosed PO, QD for 7 days, using prednisolone as a reference standard. […] On Day 7, rats were euthanized and the colon was evaluated for length, weight, wall thickness, ulcer number and length and for the presence of adhesions and strictures. A colonic score was calculated based on the severity of the colonic parameters.

rats (male, Wistar) [5] = assay: Rat monosodium iodoacetate-induced osteoarthritis
Experimental: Representative compounds of the invention (i.e., test compounds) were administered to rats (male, Wistar) PO, QD, at 3 or 30 mg/kg, starting on Day 0 through to Day 21 of the study. Osteoarthritis was modeled by intra-articular injection of 3 mg of monosodium iodoacetate (MIA) in the right knee. Knee swelling, paw withdrawal threshold (mechanical allodynia) and the difference in weight bearing were measured on Day 0 (pre-induction) and on Days 3, 7, 14 and 21 post-MIA injection. Tramadol was used as a reference standard.

[6] = system: Rats (male, Sprague-Dawley); assay: Spinal nerve ligation (neuropathic pain); conditions: 10 mg/kg
Excerpt: Rats (male, Sprague-Dawley) were anaesthetized and placed in a prone position and the left paraspinal muscles were separated from the spinous processes at the L6-S2 levels. The L6 transverse process was carefully removed to visually identify the L4-L6 spinal nerves. The left L5 spinal nerves were isolated and tightly ligated with 6-0 silk thread. The skin was sutured to close the open tissue and animals were allowed to recover for 1 week before pain assessment. Basal readings for mechanical allodynia and thermal hyperalgesia were performed using a dynamic plantar aesthesiometer and plantar test surface, respectively, before surgery. On Day 7 following surgery, mechanical allodynia and thermal hyperalgesia were assessed and animals were randomized into treatment groups based on these baseline readings. […] Thermal hyperalgesia and mechanical allodynia were tested at 0, 60 and 120 minutes post administration of compounds on Days 7 and 14.

Cc1ccc(-c2cc(C(F)(F)F)nn2-c2ccc(S(N)(=O)=O)cc2)cc1 [celecoxib, reference compound]
increase in the paw withdrawal threshold [1]: 59%

O=C(O)Cc1ccccc1Nc1c(Cl)cccc1Cl [diclofenac, reference compound]
increase in the paw withdrawal threshold (rats (male, Wistar) [2]): 62%

CC(C)Cc1ccc(C(C)C(=O)O)cc1 (centres unmarked) [ibuprofen, reference compound]
nociceptive threshold restored, % of the baseline (male Sprague-Dawley rats): 120% | nociceptive threshold, % of baseline levels [3]: 123%

C[C@]12C=CC(=O)C=C1CC[C@@H]1[C@@H]2[C@@H](O)C[C@@]2(C)[C@H]1CC[C@]2(O)C(=O)CO [prednisolone, reference compound]
reduction of the colonic score [4]: 68%

COc1cccc(C2(O)CCCCC2CN(C)C)c1 (centres unmarked) [tramadol, reference compound]
reduction difference in weight bearing as compared to the vehicle (rats (male, Wistar) [5]; 10 mg/kg): 79% | reduction in knee diameter as compared to the vehicle (rats (male, Wistar) [5]; Day 3, 30 mg/kg): 11% | overall increase in paw withdrawal threshold as compared to the vehicle [6]: 77%
